Experiments:
giant foxtail = experiment: Test B pre-/postemergence herbicide test; format: in vivo, Setaria faberi; conditions: for Foxtail, Giant plant response rating: postemergence
How it was run: (§1)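 Greenhouse pot assay with simultaneous preemergence (treated seed) and postemergence (2–18 cm seedlings) applications of surfactant-containing, non-phytotoxic solvent formulations. Response scored visually 13–15 days later on a 0–100 scale, 100 meaning complete control.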

wheat = experiment: Test B postemergence herbicide test; format: in vivo, Triticum aestivum; design: key to Wheat plant response rating: 0 = no effect, 100 = complete control; conditions: for Wheat plant response rating: postemergence
How it was run: (§2)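 Each value is a visual 0–100 response rating taken against controls 13 to 15 days after treatment in the greenhouse. Plants received formulated chemical postemergence at the 1- to 4-leaf stage or, in flooded paddy, at the 2-leaf stage.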

barnyardgrass [1] = experiment: Test B pre-/postemergence herbicide test; format: in vivo, Echinochloa crus-galli; conditions: for Barnyardgrass plant response rating: postemergence
How it was run: (§3)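 Formulation: non-phytotoxic solvent mix with surfactant. Timing: preemergence on seed and postemergence on 2–18 cm plants, applied concurrently. Readout after 13–15 d greenhouse: visual 0–100 control rating against controls.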

cocklebur = experiment: Test B pre-/postemergence herbicide test; format: in vivo, Xanthium strumarium; conditions: for Cocklebur plant response rating: postemergence
How it was run: as §3

Surinam grass = experiment: Test B pre-/postemergence herbicide test; format: in vivo, Urochloa decumbens; conditions: for Surinam Grass plant response rating: postemergence
How it was run: as §1

rice [2] = experiment: Test B pre-/postemergence herbicide test; format: in vivo, Oryza sativa; conditions: preemergence
Excerpt: Seeds selected from barnyardgrass (Echinochloa crus-galli (L.) Beauv.), Surinam grass (Urochloa decumbens (Staph) R. D. Webster, previously named Brachiaria decumbens Stapf), cocklebur (Xanthium strumarium L.), corn (Zea mays L.), large crabgrass (Digitaria sanguinalis (L.) Scop.), giant foxtail (Setaria faberi Herim.), lambsquarters (Chenopodium album L.), morningglory (Ipomoea coccinea L.), pigweed (Amaranthus retroflexus L.), rice (Oryza sativa L.) and velvetleaf (Abutilon theophrasti Medik.) were planted and treated preemergence with test chemicals formulated in a non-phytotoxic solvent mixture which included a surfactant.
At the same time, plants selected from these crop and weed species and also blackgrass (Alopecurus myosuroides Huds.), wheat (Triticum aestivum L.) and wild oat (Avena fatua L.) were treated with postemergence applications of test chemicals formulated in the same manner. Plants ranged in height from 2 to 18 cm (1- to 4-leaf stage) for postemergence treatments. Plant species in the flooded paddy test consisted of rice (Oryza sativa L.), small flower umbrella sedge (Cyperus difformis L.), ducksalad (Heteranthera limosa (Sw.) Willd.) and barnyardgrass (Echinochloa crus-galli (L.) Beauv.) grown to the 2-leaf stage for testing. Treated plants and controls were maintained in a greenhouse for 13 to 15 days, after which time all species were compared to controls and visually evaluated. Plant response ratings, summarized in Table B, are based on a scale of 0 to 100 where 0 is no effect and 100 is complete control. A dash (-) response means no test result.

morningglory = experiment: Test B pre-/postemergence herbicide test; format: in vivo, Ipomoea coccinea; conditions: for Morningglory plant response rating: postemergence
How it was run: as §3

pigweed = experiment: Test B pre-/postemergence herbicide test; format: in vivo, Amaranthus retroflexus; conditions: for Pigweed plant response rating: postemergence
How it was run: as §1

rice [3] = experiment: Test B flooded paddy test; format: in vivo, Oryza sativa; conditions: 1000 g ai/ha, scale 0 to 100 (0 no effect, 100 complete control)
How it was run: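 Greenhouse test; postemergence application to plants at 1–4 leaves (2–18 cm); paddy species at 2 leaves; evaluated visually vs controls at 13–15 days; scale 0–100 (100 = complete control).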

velvetleaf = experiment: Test B pre-/postemergence herbicide test; format: in vivo, Abutilon theophrasti; conditions: for Velvetleaf plant response rating: postemergence
How it was run: as §1

blackgrass = experiment: Test B postemergence herbicide test; format: in vivo, Alopecurus myosuroides; conditions: for Blackgrass plant response rating: postemergence
How it was run: (§4)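 Scale 0–100: zero equals no visible effect, 100 complete control, judged by eye relative to controls. Timing: 13 to 15 days in greenhouse post-treatment. Growth stage at spraying: two leaves (paddy) or one to four leaves, 2–18 cm (postemergence).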

[4] = system: small flower umbrella sedge; experiment: Test B flooded paddy test; format: in vivo, Cyperus difformis; conditions: 1000 g ai/ha, scale 0 to 100 (0 no effect, 100 complete control)
How it was run: as §4

barnyardgrass [5] = experiment: Test B flooded paddy test; format: in vivo, Echinochloa crus-galli; conditions: 1000 g ai/ha, scale 0 to 100 (0 no effect, 100 complete control)
How it was run: as §4

lambsquarters = experiment: Test B pre-/postemergence herbicide test; format: in vivo, Chenopodium album; conditions: for Lambsquarters plant response rating: postemergence
How it was run: as §1

corn = experiment: Test B pre-/postemergence herbicide test; format: in vivo, Zea mays; conditions: for Corn plant response rating: postemergence
How it was run: as §1

wild oat = experiment: Test B postemergence herbicide test; format: in vivo, Avena fatua; conditions: for Oat, Wild plant response rating: postemergence
How it was run: as §2

ducksalad = experiment: Test B flooded paddy test; format: in vivo, Heteranthera limosa; conditions: 1000 g ai/ha, scale 0 to 100 (0 no effect, 100 complete control)
How it was run: as §4

large crabgrass = experiment: Test B pre-/postemergence herbicide test; format: in vivo, Digitaria sanguinalis; conditions: for Crabgrass, Large plant response rating: postemergence
How it was run: as §1

[6] = 500 g ai/ha, visual rating 0-100, 0 no effect, 100 complete control, preemergence
[7] = Postemergence, 500 g ai/ha, visual rating after 13 to 15 days, scale 0 (no effect) to 100 (complete control)
[8] = 125 g ai/ha, visual rating, scale 0 (no effect) to 100 (complete control)
[9] = preemergence, 125 g ai/ha, 0 to 100 scale, 0 is no effect, 100 is complete control
[10] = 125 g ai/ha, 0 = no effect, 100 = complete control, preemergence
[11] = 500 g ai/ha, visual rating, 0 = no effect, 100 = complete control, preemergence
[12] = 500 g ai/ha, scale 0 to 100, 0 is no effect, 100 is complete control

CCn1nc(C(C)(C)C)cc1C(=O)Nc1ccc(C)c(C(=O)OC(C)C)c1 [Compound 100]
Plant response rating, Foxtail, Giant (giant foxtail; [6]): 0
Plant response rating, Foxtail, Giant (giant foxtail; [7]): 0
Foxtail, Giant plant response rating (giant foxtail; [8]): 0
Plant response rating, Foxtail, Giant (giant foxtail; [9]): 0
Plant response rating, Wheat (wheat; [7]): 10
Wheat plant response rating (wheat; [8]): 10
Plant response rating, Barnyardgrass (barnyardgrass [1]; [6]): 0
Plant response rating, Barnyardgrass (barnyardgrass [1]; [7]): 0
Barnyardgrass plant response rating (barnyardgrass [1]; [8]): 0
Plant response rating, Barnyardgrass (barnyardgrass [1]; [9]): 0
Plant response rating, Cocklebur (cocklebur; [6]): 0
Plant response rating, Cocklebur (cocklebur; [7]): 0
Cocklebur plant response rating (cocklebur; [8]): 0
Plant response rating, Cocklebur (cocklebur; [9]): 0
Plant response rating, Surinam Grass (Surinam grass; [6]): 0
Plant response rating, Surinam Grass (Surinam grass; [7]): 20
Surinam Grass plant response rating (Surinam grass; [8]): 0
Plant response rating, Surinam Grass (Surinam grass; [9]): 0
Plant response rating, Rice (rice [2]; 500 g ai/ha, visual rating 0-100, 0 no effect, 100 complete control): 0
Plant response rating, Rice (rice [2]; 125 g ai/ha, 0 to 100 scale, 0 is no effect, 100 is complete control): 0
Plant response rating, Morningglory (morningglory; [6]): 0
Plant response rating, Morningglory (morningglory; [7]): 0
Morningglory plant response rating (morningglory; [8]): 0
Plant response rating, Morningglory (morningglory; [9]): 0
Plant response rating, Pigweed (pigweed; [6]): 0
Plant response rating, Pigweed (pigweed; [7]): 60
Pigweed plant response rating (pigweed; [8]): 0
Plant response rating, Pigweed (pigweed; [9]): 0
Rice plant response rating (rice [3]; visual rating, 13 to 15 days): 0
Plant response rating, Velvetleaf (velvetleaf; [6]): 0
Plant response rating, Velvetleaf (velvetleaf; [7]): 0
Velvetleaf plant response rating (velvetleaf; [8]): 0
Plant response rating, Velvetleaf (velvetleaf; [9]): 0
Plant response rating, Blackgrass (blackgrass; [7]): 30
Blackgrass plant response rating (blackgrass; [8]): 10
Sedge, Umbrella plant response rating ([4]; visual rating, 13 to 15 days): 0
Barnyardgrass plant response rating (barnyardgrass [5]; visual rating, 13 to 15 days): 0
Plant response rating, Lambsquarters (lambsquarters; [6]): 0
Plant response rating, Lambsquarters (lambsquarters; [7]): 50
Lambsquarters plant response rating (lambsquarters; [8]): 0
Plant response rating, Lambsquarters (lambsquarters; [9]): 0
Plant response rating, Corn (corn; [6]): 0
Plant response rating, Corn (corn; [7]): 0
Corn plant response rating (corn; [8]): 0
Plant response rating, Corn (corn; [9]): 0
Plant response rating, Oat, Wild (wild oat; [7]): 40
Oat, Wild plant response rating (wild oat; [8]): 20
Ducksalad plant response rating (ducksalad; visual rating, 13 to 15 days): 0
Plant response rating, Crabgrass, Large (large crabgrass; [6]): 0
Plant response rating, Crabgrass, Large (large crabgrass; [7]): 0
Crabgrass, Large plant response rating (large crabgrass; [8]): 0
Plant response rating, Crabgrass, Large (large crabgrass; [9]): 0

CCNC(=O)c1ccc(F)c(NC(=O)c2c(F)c(C(C)(C)C)nn2CC)c1 [Compound 275]
Foxtail, Giant plant response rating (0 to 100 scale) (giant foxtail; [10]): 0
Plant response rating, Foxtail, Giant (giant foxtail; [11]): 20
Foxtail, Giant plant response rating (giant foxtail; [8]): 0
Foxtail, Giant plant response rating (giant foxtail; [12]): 0
Wheat plant response rating (wheat; [8]): 20
Wheat plant response rating (wheat; [12]): 30
Barnyardgrass plant response rating (0 to 100 scale) (barnyardgrass [1]; [10]): 0
Plant response rating, Barnyardgrass (barnyardgrass [1]; [11]): 60
Barnyardgrass plant response rating (barnyardgrass [1]; [8]): 0
Barnyardgrass plant response rating (barnyardgrass [1]; [12]): 20
Cocklebur plant response rating (0 to 100 scale) (cocklebur; [10]): 0
Plant response rating, Cocklebur (cocklebur; [11]): 0
Cocklebur plant response rating (cocklebur; [8]): 0
Cocklebur plant response rating (cocklebur; [12]): 10
Surinam Grass plant response rating (0 to 100 scale) (Surinam grass; [10]): 0
Plant response rating, Surinam Grass (Surinam grass; [11]): 10
Surinam Grass plant response rating (Surinam grass; [8]): 10
Surinam Grass plant response rating (Surinam grass; [12]): 30
Rice plant response rating (0 to 100 scale) (rice [2]; 125 g ai/ha, 0 = no effect, 100 = complete control): 0
Plant response rating, Rice (rice [2]; 500 g ai/ha, visual rating, 0 = no effect, 100 = complete control): 60
Morningglory plant response rating (0 to 100 scale) (morningglory; [10]): 0
Plant response rating, Morningglory (morningglory; [11]): 40
Morningglory plant response rating (morningglory; [8]): 0
Morningglory plant response rating (morningglory; [12]): 10
Pigweed plant response rating (0 to 100 scale) (pigweed; [10]): 0
Plant response rating, Pigweed (pigweed; [11]): 40
Pigweed plant response rating (pigweed; [8]): 60
Pigweed plant response rating (pigweed; [12]): 70
Rice plant response rating (rice [3]): 20
Velvetleaf plant response rating (0 to 100 scale) (velvetleaf; [10]): 0
Plant response rating, Velvetleaf (velvetleaf; [11]): 0
Velvetleaf plant response rating (velvetleaf; [8]): 0
Velvetleaf plant response rating (velvetleaf; [12]): 30
Blackgrass plant response rating (blackgrass; [8]): 40
Blackgrass plant response rating (blackgrass; [12]): 40
Sedge, Umbrella plant response rating [4]: 80
Barnyardgrass plant response rating (barnyardgrass [5]): 20
Plant response rating, Lambsquarters (lambsquarters; [11]): 100
Lambsquarters plant response rating (lambsquarters; [8]): 50
Lambsquarters plant response rating (lambsquarters; [12]): 70
Corn plant response rating (0 to 100 scale) (corn; [10]): 0
Plant response rating, Corn (corn; [11]): 20
Corn plant response rating (corn; [8]): 0
Corn plant response rating (corn; [12]): 0
Oat, Wild plant response rating (wild oat; [8]): 30
Oat, Wild plant response rating (wild oat; [12]): 40
Ducksalad plant response rating (ducksalad): 60
Crabgrass, Large plant response rating (0 to 100 scale) (large crabgrass; [10]): 0
Plant response rating, Crabgrass, Large (large crabgrass; [11]): 0
Crabgrass, Large plant response rating (large crabgrass; [8]): 0
Crabgrass, Large plant response rating (large crabgrass; [12]): 10

Source: patent US20060069132A1, “Azolecarboxamide herbicides” (priority 2004, published 2006)
